From patent US5223482A, “Recombinant Alzheimer's protease inhibitory amyloid protein and method of use” (Scios Nova Inc., priority 1989, dated 1993) come the findings set out here.

Format in all cases: biochemical
Assay [1] relates to trypsin. Put plainly: Trypsin inhibition assay (hydrolysis of N-benzoyl-D-arginine-p-nitroaniline, release of pNA). The settings on record: HPLC peaks of the trypsin affinity column eluate. The method, then:
All 8 oligonucleotides encoding either the phoA or ompA fusions were mixed together and treated with ligase. […] The ligated constructs were then ligated into the NdeI-HindIII sites of the vector pTRP233. The ligated vectors were transfected into E. coli strain MC1061 and Amp^R colonies selected. […] Miniprep DNA was used to transfect strains W3110 and JE5505. Small scale cultures of each of the three strains were grown and induced with IAA overnight. Culture supernatants were examined for trypsin inhibitory acitvity. Trypsin is assayed for its ability to hydrolyze the synthetic substrate N-benzoyl-D-arginine-p-nitroaniline to release p-nitroaniline (pNA). The release of pNA as a function of time is easily monitored in a spectrophotomer and can be quantitated to measure trypsin activity. The inhibitor is detected in this assay by virtue of its ability to bind to trypsin and prevent hydrolysis of the substrate by trypsin. Inhibitory activity wad detected in the culture medium for both ompA and phoA constructs in JE5505 but not W3110 or MC1601. Expression levels appeared to be higher with the phoA construct and so only this construct was used for subsequent experiments.

Assay [2] concerns the target trypsin. Put plainly: Kinetics of inhibition (Ki) of the protease inhibitor for trypsin. The method, then:
(§1) The analogs of the present protease inhibitors are constructed from oligonucleotides containing the specific codons encoding the desired amino acid at this location, using site-specific mutagenesis techniques as are known in the art. The desired activities of the analogs thus constructed are assayed using the appropriate enzyme, for example, either trypsin, chymotrypsin or elastase as the standard in one of the respective assays using, for example, the trypsin or chymotrypsin assays described in Tan, N. H. Biochem (1977) 16:1531-1541 and the elastase assays Barrett, A. J. (1981) in Methods in Enzymology vol. 80, L. Lorand ed., Academic Press, New York. The activity of the analogs may be compared with that of the natural protease inhibitor of the invention.

A further assay has as its target chymotrypsin. Put plainly: Kinetics of inhibition (Ki) of the protease inhibitor for chymotrypsin. The method, then: as §1

Where no end group is shown, it is not given here.

Regarding “peak 4: major HPLC peak of the purified inhibitor; mass consistent with full length A4i with 3 disulfide bridges (EVCSEQAETGPCRAMISRWYFDVTEGKCAPFFYGGCGGNRNNFDTEEYCMAVCGSAM; disulfide (positions not given here); UniProt P05067 289-345, looked up, fragment)”, in the assay with trypsin [1], the “activity in the trypsin inhibition assay” value is given as “active”.
Turning to “natural protease inhibitor: 57 amino acid Kunitz-type protease inhibitor, residues 289 through 345 of the λAPCP168i4 β-amyloid-related protein (EVCSEQAETGPCRAMISRWYFDVTEGKCAPFFYGGCGGNRNNFDTEEYCMAVCGSAM; Kunitz inhibitor domain; UniProt P05067 289-345, looked up, fragment)”, the results for the Ki at trypsin [2] and at chymotrypsin were 3 nM and 8.5 nM, respectively.

By Ki is commonly meant the equilibrium dissociation constant of an inhibitor or competing ligand from its target. High values mean weaker binding, low ones tighter binding.
